How the values were obtained:
MCF7 = assay: Cytotoxicity against human MCF7 cells; format: functional, cell-based
[1] = molecular target: Tumour suppressor p53/oncoprotein Mdm2 (Homo sapiens, UniProt P04637+Q00987); assay: Inhibition of MDM2/p53 (unknown origin) interaction by fluorescence polarization assay; format: protein assay
Neuropilin-1 = Neuropilin-1 (Homo sapiens, UniProt O14786); assay: Binding affinity to NRP1 (unknown origin) assessed as reduction in […]VEGFA (165) protein interaction
Sequence of Neuropilin-1 (O14786 whole entry): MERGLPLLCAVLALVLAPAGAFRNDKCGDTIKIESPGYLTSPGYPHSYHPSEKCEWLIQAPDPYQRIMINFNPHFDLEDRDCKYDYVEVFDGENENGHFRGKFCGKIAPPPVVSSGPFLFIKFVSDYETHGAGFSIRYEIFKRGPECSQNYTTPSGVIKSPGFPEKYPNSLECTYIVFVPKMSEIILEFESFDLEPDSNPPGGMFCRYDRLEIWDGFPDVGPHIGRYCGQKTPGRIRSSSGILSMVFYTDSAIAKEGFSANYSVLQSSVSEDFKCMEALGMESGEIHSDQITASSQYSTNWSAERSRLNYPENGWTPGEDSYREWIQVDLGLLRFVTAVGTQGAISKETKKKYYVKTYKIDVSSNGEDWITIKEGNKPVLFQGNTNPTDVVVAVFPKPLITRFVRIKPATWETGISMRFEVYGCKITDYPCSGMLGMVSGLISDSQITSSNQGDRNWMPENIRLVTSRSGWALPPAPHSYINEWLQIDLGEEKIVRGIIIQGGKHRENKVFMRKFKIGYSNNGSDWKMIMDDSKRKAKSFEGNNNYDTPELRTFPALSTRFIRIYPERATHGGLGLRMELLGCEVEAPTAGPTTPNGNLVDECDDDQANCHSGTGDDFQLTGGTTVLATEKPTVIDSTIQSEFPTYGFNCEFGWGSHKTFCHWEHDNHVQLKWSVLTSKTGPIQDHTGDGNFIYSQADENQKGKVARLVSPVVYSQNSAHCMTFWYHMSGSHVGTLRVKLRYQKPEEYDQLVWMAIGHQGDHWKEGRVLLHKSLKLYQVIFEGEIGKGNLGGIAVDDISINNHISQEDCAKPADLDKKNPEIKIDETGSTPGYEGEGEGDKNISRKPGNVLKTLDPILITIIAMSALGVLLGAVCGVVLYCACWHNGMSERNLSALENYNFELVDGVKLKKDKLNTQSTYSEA

[2] = Antiproliferative activity against breast cancer cells (unknown origin); format: functional, cell-based; conditions: Cancer cell lines
Alpha-crystallin B chain = molecular target: T1, Alpha-crystallin B chain (Homo sapiens, UniProt P02511); assay: Binding affinity to CRYAB (unknown origin) assessed as reduction in CRYAB-VEGFA protein interaction
T1 sequence (P02511 whole entry): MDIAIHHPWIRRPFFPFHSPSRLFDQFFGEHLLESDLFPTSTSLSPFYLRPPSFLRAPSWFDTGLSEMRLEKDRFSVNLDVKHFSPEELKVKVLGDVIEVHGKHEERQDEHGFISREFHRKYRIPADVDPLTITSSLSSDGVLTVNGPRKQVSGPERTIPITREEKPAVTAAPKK

[3] = Inhibition of HIV1 gp41; parameters: species or system Human immunodeficiency virus 1
[4] = molecular target: T2, Urokinase plasminogen activator surface receptor (Homo sapiens, UniProt Q03405); assay: Binding affinity to uPAR (unknown origin)
T2 sequence (Q03405 whole entry): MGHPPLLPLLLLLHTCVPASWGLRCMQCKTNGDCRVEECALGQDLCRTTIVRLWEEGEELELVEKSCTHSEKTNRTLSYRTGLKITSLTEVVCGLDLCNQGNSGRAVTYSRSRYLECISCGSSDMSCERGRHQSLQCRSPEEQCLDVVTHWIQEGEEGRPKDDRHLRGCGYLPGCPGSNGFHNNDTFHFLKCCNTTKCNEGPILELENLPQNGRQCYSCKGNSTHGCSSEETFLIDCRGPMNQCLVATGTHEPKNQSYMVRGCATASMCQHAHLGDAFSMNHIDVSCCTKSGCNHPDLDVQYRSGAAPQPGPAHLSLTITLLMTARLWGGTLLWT

[5] = molecular target: T2, Urokinase plasminogen activator surface receptor; assay: Binding affinity to uPAR (unknown origin) assessed as reduction in uPA-uPAR protein interaction
[6] = Binding affinity to IFNalpha (unknown origin) assessed as reduction in IFNalpha/IFNAR2 interaction; parameters: species or system Homo sapiens
Annexin A2/S100-A10 = Annexin A2/S100-A10 (Homo sapiens, UniProt P07355+P60903); assay: Inhibition of Annexin A2/Protein S100-A10 (unknown origin) protein interaction by competitive fluorescent binding assay
Sequence of Annexin A2/S100-A10 (P07355 whole entry): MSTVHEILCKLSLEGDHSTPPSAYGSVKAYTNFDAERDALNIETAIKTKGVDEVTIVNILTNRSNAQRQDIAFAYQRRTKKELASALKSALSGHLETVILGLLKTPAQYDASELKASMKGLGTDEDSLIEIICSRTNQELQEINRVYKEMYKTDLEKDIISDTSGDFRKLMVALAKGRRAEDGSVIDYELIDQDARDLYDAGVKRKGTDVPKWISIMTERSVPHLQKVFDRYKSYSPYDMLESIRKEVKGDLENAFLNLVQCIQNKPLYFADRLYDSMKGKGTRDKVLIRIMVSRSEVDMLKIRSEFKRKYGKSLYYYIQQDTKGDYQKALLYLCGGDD
Sequence of Annexin A2/S100-A10 (P60903 whole entry): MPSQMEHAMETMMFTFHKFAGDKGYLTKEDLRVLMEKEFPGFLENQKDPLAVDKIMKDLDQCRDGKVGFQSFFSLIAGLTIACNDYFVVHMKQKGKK

[7] = molecular target: Tumour suppressor protein p53/Mdm4 (Homo sapiens, UniProt O15151+P04637); assay: Inhibition of MDMX/p53 (unknown origin) interaction; format: protein assay
Sequence of Tumour suppressor protein p53/Mdm4 (P04637 whole entry): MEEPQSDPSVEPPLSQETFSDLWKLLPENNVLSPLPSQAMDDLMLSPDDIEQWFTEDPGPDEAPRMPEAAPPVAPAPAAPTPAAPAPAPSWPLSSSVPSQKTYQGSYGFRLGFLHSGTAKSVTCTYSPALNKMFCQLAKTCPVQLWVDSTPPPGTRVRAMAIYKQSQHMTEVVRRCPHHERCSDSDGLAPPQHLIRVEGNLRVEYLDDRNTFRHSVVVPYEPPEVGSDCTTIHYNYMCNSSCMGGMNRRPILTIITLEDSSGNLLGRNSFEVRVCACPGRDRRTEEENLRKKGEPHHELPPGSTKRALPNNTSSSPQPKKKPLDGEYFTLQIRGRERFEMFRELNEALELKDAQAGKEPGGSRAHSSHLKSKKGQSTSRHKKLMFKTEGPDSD
Sequence of Tumour suppressor protein p53/Mdm4 (O15151 whole entry): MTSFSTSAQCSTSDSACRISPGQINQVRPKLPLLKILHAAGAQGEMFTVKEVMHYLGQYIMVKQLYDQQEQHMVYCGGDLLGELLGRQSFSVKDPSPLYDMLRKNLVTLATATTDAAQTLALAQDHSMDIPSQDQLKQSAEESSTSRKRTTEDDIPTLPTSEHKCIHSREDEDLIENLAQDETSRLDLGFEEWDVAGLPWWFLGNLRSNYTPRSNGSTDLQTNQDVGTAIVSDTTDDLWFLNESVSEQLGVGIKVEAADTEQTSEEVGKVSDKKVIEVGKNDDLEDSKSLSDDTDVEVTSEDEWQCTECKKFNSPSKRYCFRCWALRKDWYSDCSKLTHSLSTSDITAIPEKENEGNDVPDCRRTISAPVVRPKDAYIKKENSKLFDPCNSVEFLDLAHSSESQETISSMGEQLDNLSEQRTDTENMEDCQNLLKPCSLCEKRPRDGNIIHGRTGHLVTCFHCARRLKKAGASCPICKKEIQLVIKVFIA

Keap1/Nrf2 = Keap1/Nrf2 (Homo sapiens, UniProt Q14145+Q16236); assay: Inhibition of Nrf2/Keap1 (unknown origin) protein interaction by fluorescence anisotropy method; format: protein assay
Sequence of Keap1/Nrf2 (Q16236 whole entry): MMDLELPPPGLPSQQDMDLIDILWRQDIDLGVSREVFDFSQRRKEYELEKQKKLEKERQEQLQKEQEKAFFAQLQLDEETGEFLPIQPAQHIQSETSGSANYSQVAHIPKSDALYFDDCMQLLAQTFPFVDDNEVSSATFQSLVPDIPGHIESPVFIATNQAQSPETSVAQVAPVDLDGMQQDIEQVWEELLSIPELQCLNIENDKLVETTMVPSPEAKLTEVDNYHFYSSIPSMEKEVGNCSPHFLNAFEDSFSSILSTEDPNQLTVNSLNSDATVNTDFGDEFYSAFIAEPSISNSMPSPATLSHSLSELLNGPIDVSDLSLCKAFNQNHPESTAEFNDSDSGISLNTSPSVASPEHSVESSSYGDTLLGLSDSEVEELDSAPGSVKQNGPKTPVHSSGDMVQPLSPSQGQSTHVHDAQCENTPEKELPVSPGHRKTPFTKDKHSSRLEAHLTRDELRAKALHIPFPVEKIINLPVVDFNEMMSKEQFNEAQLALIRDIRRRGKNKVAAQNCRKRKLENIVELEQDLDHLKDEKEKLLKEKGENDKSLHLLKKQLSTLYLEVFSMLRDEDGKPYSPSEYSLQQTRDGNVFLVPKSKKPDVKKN
Sequence of Keap1/Nrf2 (Q14145 whole entry): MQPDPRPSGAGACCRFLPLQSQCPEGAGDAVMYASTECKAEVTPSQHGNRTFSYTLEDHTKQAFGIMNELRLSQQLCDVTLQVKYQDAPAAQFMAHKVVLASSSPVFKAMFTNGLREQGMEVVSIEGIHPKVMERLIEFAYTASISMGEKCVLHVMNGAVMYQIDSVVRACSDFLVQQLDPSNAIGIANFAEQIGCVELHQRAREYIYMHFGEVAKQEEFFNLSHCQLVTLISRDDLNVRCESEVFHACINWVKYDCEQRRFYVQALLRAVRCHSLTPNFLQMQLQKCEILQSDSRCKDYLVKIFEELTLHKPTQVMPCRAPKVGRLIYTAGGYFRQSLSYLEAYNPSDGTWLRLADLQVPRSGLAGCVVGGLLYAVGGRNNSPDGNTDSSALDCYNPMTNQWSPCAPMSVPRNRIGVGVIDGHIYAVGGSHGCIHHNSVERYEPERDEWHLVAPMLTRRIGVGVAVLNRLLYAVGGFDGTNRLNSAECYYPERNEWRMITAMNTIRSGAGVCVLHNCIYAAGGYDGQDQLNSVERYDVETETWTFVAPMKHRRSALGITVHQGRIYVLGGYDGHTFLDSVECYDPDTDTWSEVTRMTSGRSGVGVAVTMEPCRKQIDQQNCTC

Sequence of Tumour suppressor p53/oncoprotein Mdm2 (P04637 whole entry): as the sequence (P04637 whole entry) above
Sequence of Tumour suppressor p53/oncoprotein Mdm2 (Q00987 whole entry): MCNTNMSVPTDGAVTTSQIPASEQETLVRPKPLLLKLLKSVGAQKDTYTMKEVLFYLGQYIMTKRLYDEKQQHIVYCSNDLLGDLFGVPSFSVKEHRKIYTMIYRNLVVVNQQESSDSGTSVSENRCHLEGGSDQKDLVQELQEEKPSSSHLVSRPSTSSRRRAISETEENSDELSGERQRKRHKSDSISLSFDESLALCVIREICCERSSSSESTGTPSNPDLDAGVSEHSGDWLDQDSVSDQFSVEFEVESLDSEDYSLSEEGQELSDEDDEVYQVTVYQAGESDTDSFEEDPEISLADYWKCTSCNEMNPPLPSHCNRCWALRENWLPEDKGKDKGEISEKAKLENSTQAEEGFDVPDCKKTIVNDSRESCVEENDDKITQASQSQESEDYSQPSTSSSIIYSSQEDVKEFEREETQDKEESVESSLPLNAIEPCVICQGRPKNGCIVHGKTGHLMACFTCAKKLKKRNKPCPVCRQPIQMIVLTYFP

Molecule `COC(=O)[C@@H](CCCCNC(=O)OC(C)(C)C)NC(=O)CI` has an EC50 (MCF7) of 0.64 µM.

Work on `O=C(O)c1ccccc1/N=N/C(=N\Nc1cc(S(=O)(=O)O)ccc1O)c1ccccc1` yielded a Ki [1] of 0.18 µM.

Work on `O=C(NC(=S)Nc1cccc(-c2nc3ccccc3[nH]2)c1)c1ccc2c(c1)OCCO2` yielded an IC50 (Neuropilin-1) of 9.3 µM and an IC50 [2] of 0.2 µM.

Work on `CC(CC(=O)O)C(N)C(=O)O` (configuration not stated) yielded an IC50 (Alpha-crystallin B chain) of 20 µM.

`CC(C)C[C@H](NC(=O)c1ccc(NC(=O)[C@@H](N)Cc2c[nH]c3ccccc23)c(OCCc2c[nH]c3ccccc23)c1)C(=O)O` showed a Ki [3] of 1.5 µM.

Molecule `C[C@H]1C[C@H](C)CN(c2cc(Nc3ccccc3C(=O)O)c3c4c(onc24)-c2ccccc2C3=O)C1` has a Kd [4] of 0.31 µM and an IC50 [5] of 10 µM.

Molecule `CNCc1ccccc1Cc1cccc2ccccc12` has an IC50 [6] of 4 µM.

With `Cc1ccccc1OCc1nnc(SCC(N)=O)[nH]1` the IC50 (Annexin A2/S100-A10) was 24 µM.

In the case of `C[C@H](CCC(=O)O)[C@H]1CC[C@H]2[C@@H]3CC[C@@H]4C[C@H](O)CC[C@]4(C)[C@H]3CC[C@]12C` [LITHOCHOLIC ACID], the Kd [7] is reported as 15 µM.

`CCC(CC)c1ccc(S(=O)(=O)Nc2cc(Sc3nc[nH]n3)c(O)c3ccccc23)cc1` gave a Kd (Keap1/Nrf2) of 2.9 µM.
